From patent US7517874B2 (priority 2007, dated 2009)

Tests used:
rat CB2 receptor (rCB2) = molecular target: T1, rat CB2 receptor (rCB2) (Rattus norvegicus, UniProt Q9QZN9); experiment: cell-based; format: cell-based; conditions: for +/− RCB2: agonist or inverse agonist at rCB2
T1 sequence (Q9QZN9 1-360): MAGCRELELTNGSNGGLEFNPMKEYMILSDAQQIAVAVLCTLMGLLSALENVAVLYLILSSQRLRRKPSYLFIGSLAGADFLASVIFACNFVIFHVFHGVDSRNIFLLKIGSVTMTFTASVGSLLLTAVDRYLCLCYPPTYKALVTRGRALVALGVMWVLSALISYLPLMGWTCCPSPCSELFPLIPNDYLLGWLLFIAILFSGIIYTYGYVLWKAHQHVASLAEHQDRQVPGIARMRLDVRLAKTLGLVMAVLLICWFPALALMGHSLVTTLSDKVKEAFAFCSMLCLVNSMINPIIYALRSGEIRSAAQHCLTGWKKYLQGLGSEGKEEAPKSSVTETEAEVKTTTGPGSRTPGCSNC
Procedure, shortened: (§1)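 Agonism or inverse agonism was assessed as change in intracellular cAMP in CHO-K1 cells expressing human CB1 or rat CB2 (genomic DNA, pcDNA3.1).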

[1] = molecular target: human CB1 receptor (hCB1) (Homo sapiens, UniProt P21554); experiment: cell-based; format: cell-based
Procedure, shortened: as §1

human CB1 receptor (hCB1), sequence (P21554 whole entry): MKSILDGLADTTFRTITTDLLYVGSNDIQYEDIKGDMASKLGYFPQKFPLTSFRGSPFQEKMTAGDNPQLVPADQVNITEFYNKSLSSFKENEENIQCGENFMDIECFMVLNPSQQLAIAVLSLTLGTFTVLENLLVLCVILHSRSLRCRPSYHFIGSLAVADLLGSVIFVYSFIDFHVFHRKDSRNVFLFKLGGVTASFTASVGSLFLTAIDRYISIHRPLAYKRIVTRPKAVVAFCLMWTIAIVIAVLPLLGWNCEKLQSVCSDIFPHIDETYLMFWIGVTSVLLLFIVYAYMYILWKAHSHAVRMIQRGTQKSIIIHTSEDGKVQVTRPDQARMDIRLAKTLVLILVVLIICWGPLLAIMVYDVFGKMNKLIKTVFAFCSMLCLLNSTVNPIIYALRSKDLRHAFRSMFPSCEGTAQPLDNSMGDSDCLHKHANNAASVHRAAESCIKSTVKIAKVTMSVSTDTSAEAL

Compound	+/− RCB2 (rat CB2 receptor (rCB2))	EC50 [1]	EC50 (rat CB2 receptor (rCB2))
C/C=C/c1nc(C(=O)N[C@H](C(=O)NC)C(C)(C)C)c2n1CCCN(C)C2 [Compound 376, (S,E)-N-(3,3-dimethyl-1-(methylamino)-1-oxobutan-2-yl)-8-methyl-3-(prop-1-enyl)-6,7,8,9-tetrahydro-5H-imidazo[1,5-a][1,4]diazepine-1-carboxamide]	+	> 10 µM	
CNC(=O)[C@@H](NC(=O)c1nc(-c2ccccc2)n2c1CN(S(=O)(=O)c1cccc(F)c1)CC2)C(C)(C)C [Compound 99, (S)-N-(3,3-dimethyl-1-(methylamino)-1-oxobutan-2-yl)-7-(3-fluorophenylsulfonyl)-3-phenyl-5,6,7,8-tetrahydroimidazo[1,5-a]pyrazine-1-carboxamide]	−	> 10 µM	
CNC(=O)[C@@H](NC(=O)c1nc(/C=C/C2CC2)n2c1CN(C)CC2)C(C)(C)C [Compound 273, (S,E)-3-(2-cyclopropylvinyl)-N-(3,3-dimethyl-1-(methylamino)-1-oxobutan-2-yl)-7-methyl-5,6,7,8-tetrahydroimidazo[1,5-a]pyrazine-1-carboxamide]		> 10 µM	> 10 µM
CCCc1nc(C(=O)N[C@H](C(=O)NC)C(C)(C)C)c2n1CCCN(C)C2 [Compound 485, (S)-N-(3,3-dimethyl-1-(methylamino)-1-oxobutan-2-yl)-8-methyl-3-propyl-6,7,8,9-tetrahydro-5H-imidazo[1,5-a][1,4]diazepine-1-carboxamide]	+	> 10 µM	
CNC(=O)[C@@H](NC(=O)c1nc(-c2ccc(F)c(C(N)=O)c2)n2c1CN(C)CCC2)C(C)(C)C [Compound 429, (S)-3-(3-carbamoyl-4-fluorophenyl)-N-(3,3-dimethyl-1-(methylamino)-1-oxobutan-2-yl)-8-methyl-6,7,8,9-tetrahydro-5H-imidazo[1,5-a][1,4]diazepine-1-carboxamide]	+	> 10 µM	
COC(=O)[C@@H](NC(=O)c1nc(-c2ccc(C)cc2F)n2c1CN(CC1CC1)CCC2)C(C)(C)C [Compound 470, (S)-methyl 2-(8-(cyclopropylmethyl)-3-(2-fluoro-4-methylphenyl)-6,7,8,9-tetrahydro-5H-imidazo[1,5-a][1,4]diazepine-1-carboxamido)-3,3-dimethylbutanoate]	−	> 10 µM	
COC(=O)[C@@H](NC(=O)c1nc(-c2ccccc2)n2c1CNCCC2)C(C)(C)C [Compound 465, (S)-methyl 3,3-dimethyl-2-(3-phenyl-6,7,8,9-tetrahydro-5H-imidazo[1,5-a][1,4]diazepine-1-carboxamido)butanoate]	+	> 10 µM	
CNC(=O)[C@H](CC(C)C)NC(=O)c1nc(-c2cccc(F)c2)n2c1CN(C)CCC2 [Compound 531, (S)-3-(3-fluorophenyl)-8-methyl-N-(4-methyl-1-(methylamino)-1-oxopentan-2-yl)-6,7,8,9-tetrahydro-5H-imidazo[1,5-a][1,4]diazepine-1-carboxamide]	+	> 10 µM	
CN1CCCn2c(-c3ccccc3)nc(C(=O)N[C@H](C(=O)NCC3CCOCC3)C(C)(C)C)c2C1 [Compound 479, (S)-N-(3,3-dimethyl-1-oxo-1-((tetrahydro-2H-pyran-4-yl)methylamino)butan-2-yl)-8-methyl-3-phenyl-6,7,8,9-tetrahydro-5H-imidazo[1,5-a][1,4]diazepine-1-carboxamide]	+	> 10 µM	
Cc1nnc([C@@H](NC(=O)c2nc(-c3ccccc3)n3c2CNCC3)C(C)(C)C)o1 [Compound 200, (S)-N-(2,2-dimethyl-1-(5-methyl-1,3,4-oxadiazol-2-yl)propyl)-3-phenyl-5,6,7,8-tetrahydroimidazo[1,5-a]pyrazine-1-carboxamide]	+	> 10 µM	
CC(C)CN1CCn2c(-c3ccccc3)nc(C(=O)NN3CCCCC3)c2C1 [Compound 155, 7-isobutyl-3-phenyl-N-(piperidin-1-yl)-5,6,7,8-tetrahydroimidazo[1,5-a]pyrazine-1-carboxamide]	−	> 10 µM	
CNC(=O)[C@@H](NC(=O)c1nc(-c2ccccc2OC(F)(F)F)n2c1CN(C)CCC2)C(C)(C)C [Compound 333, (S)-N-(3,3-dimethyl-1-(methylamino)-1-oxobutan-2-yl)-8-methyl-3-(2-(trifluoromethoxy)phenyl)-6,7,8,9-tetrahydro-5H-imidazo[1,5-a][1,4]diazepine-1-carboxamide]	+	> 10 µM	
CCCC(CO)NC(=O)c1nc(-c2ccccc2)n2c1CN(C)CC2 (stereo not shown) [Compound 233, N-(1-hydroxypentan-2-yl)-7-methyl-3-phenyl-5,6,7,8-tetrahydroimidazo[1,5-a]pyrazine-1-carboxamide]		> 10 µM	> 10 µM
C[C@@H](NC(=O)c1nc(-c2ccccc2)n2c1CN(C(=O)OC(C)(C)C)CC2)C1CCCCC1 [Compound 37, (R)-tert-butyl 1-(1-cyclohexylethylcarbamoyl)-3-phenyl-5,6-dihydroimidazo[1,5-a]pyrazine-7(8H)-carboxylate]	−	> 10 µM	
CC(C)C[C@H](NC(=O)c1nc(-c2cc(F)ccc2F)n2c1CN(C)CCC2)C(N)=O [Compound 567, (S)-N-(1-amino-4-methyl-1-oxopentan-2-yl)-3-(2,5-difluorophenyl)-8-methyl-6,7,8,9-tetrahydro-5H-imidazo[1,5-a][1,4]diazepine-1-carboxamide]	+	> 10 µM	
CNC(=O)[C@@H](NC(=O)c1nc(-c2ccccc2)n2c1CN(C(=O)c1ccco1)CC2)C(C)(C)C [Compound 128, (S)-N-(3,3-dimethyl-1-(methylamino)-1-oxobutan-2-yl)-7-(furan-2-carbonyl)-3-phenyl-5,6,7,8-tetrahydroimidazo[1,5-a]pyrazine-1-carboxamide]	−	> 10 µM	
CNC(=O)[C@@H](NC(=O)c1nc(-c2cccc(NS(C)(=O)=O)c2)n2c1CN(C)CCC2)C(C)(C)C [Compound 421, (S)-N-(3,3-dimethyl-1-(methylamino)-1-oxobutan-2-yl)-8-methyl-3-(3-(methylsulfonamido)phenyl)-6,7,8,9-tetrahydro-5H-imidazo[1,5-a][1,4]diazepine-1-carboxamide]	−	> 10 µM	
CNC(=O)[C@@H](NC(=O)c1nc(-c2ccccc2)n2c1CN(C1CC1)CC2)C(C)(C)C [Compound 197, (S)-7-cyclopropyl-N-(3,3-dimethyl-1-(methylamino)-1-oxobutan-2-yl)-3-phenyl-5,6,7,8-tetrahydroimidazo[1,5-a]pyrazine-1-carboxamide]	−	> 10 µM	
CNC(=O)[C@@H](NC(=O)c1nc(/C=C/C(C)(C)C)n2c1CN(C)CC2)C(C)(C)C [Compound 263, (S,E)-N-(3,3-dimethyl-1-(methylamino)-1-oxobutan-2-yl)-3-(3,3-dimethylbut-1-enyl)-7-methyl-5,6,7,8-tetrahydroimidazo[1,5-a]pyrazine-1-carboxamide]	+	> 10 µM	
CNC(=O)[C@@H](NC(=O)c1nc(C2CCC(F)(F)CC2)n2c1CN(C)CCC2)C(C)(C)C [Compound 528, (S)-3-(4,4-difluorocyclohexyl)-N-(3,3-dimethyl-1-(methylamino)-1-oxobutan-2-yl)-8-methyl-6,7,8,9-tetrahydro-5H-imidazo[1,5-a][1,4]diazepine-1-carboxamide]	+	> 10 µM	
